Measured values from patent US20070218504A1, “HUMAN LEPTIN-DERIVED POLYPEPTIDES AND USES THEREOF” (UNIVERSITY OF PITTSBURGH, priority 2006, published 2007).

Columns and labels:
Type in all cases: in vivo, mouse
ob/ob mice [1] = assay: Subcutaneous micro-osmotic pump infusion of human CRP and human leptin in ob/ob mice; details: for effect of CRP alone on food intake and body weight: CRP without leptin
Experimental: Micro-osmotic pumps (#1007D, DURECT, Cupertino, Calif.) were subcutaneously implanted into ob/ob or wild-type mice according to the instructions of the manufacturer. The osmotic pumps were pre-filled with saline, CRP, leptin or leptin plus CRP. Food intake (24-hour), body weight, and body temperature were monitored daily post-surgery. Blood glucose concentrations were measured using tail-vein blood samples using a Precision Plus® glucose meter, product of Medisense (Abbot Park, Ill.).
Human- and mouse-leptin concentrations were measured using ELISA kits from CHEMICON (Temecular, Calif.) and R&D Systems (Minneapolis, Minn.), respectively, accordingly to the instructions of the manufacturers. Serum mouse insulin and human CRP were determined with ELISA kits from LINCO Research (St. Charles, Mo.) and HELICA (Fullerton, Calif.), respectively. Serum- and tissue-triglycerides were determined with the protocols described previously (19).
Various amounts of human CRP, either alone or with human leptin, were administered via micro-osmotic pumps implanted s.c. into 8-week old ob/ob mice.
The above in vivo data were harvested from mice experiencing infusions of a mixture of CRP and leptin stored in a single mini-osmotic pump. Human CRP and leptin were also infused in separate osmotic pumps. […] Also compared to infusion from a single pump, detectable effects of human CRP on leptin were realized later, likely due to the time required to achieve diffusion and binding equilibrium.

CRP-transgenic mice = assay: Human leptin infusion in mice transgenically expressing human CRP and wild-type littermates
Experimental: To complement the in vivo studies further, the satiety and weight-reducing functions of human leptin were evaluated in mice producing transgenically expressed human CRP (24). The average baseline serum concentration of human CRP in these mice was approximately 15 μg/ml. […] To evaluate the effects of human leptin in the transgenic mice, a dose of 0.6 mg/kg/day, which has been known to maximally but only temporarily affected energy balance in wild-type mice (25), was infused. […] At the end of infusion, the total human leptin concentration in the sera of transgenic mice averaged at 7.6 ng/ml, which was higher than that in the wild-type littermates at 3.2 ng/ml.

ob/ob mice [2] = assay: Intracerebralventricular (i.c.v.) injection of human CRP and leptin in ob/ob mice, food intake and body weight
Experimental: Male C57BL/6J ob/ob mice used in this study were obtained from the Jackson Laboratory, Bar Harbor. Mice (7-8 weeks of age) were fed standard chow and water ad libitum, housed in individual cages under controlled temperature at 22° C. and a 12-hour light-dark cycle with light from 0700 to 1900 h. Food intake and body weight were measured daily throughout the study. All experimental procedures were performed according to protocols approved by the Institutional Animal Care and Use Committee at the University of Pittsburgh. Cannulas were surgically implanted into the lateral ventricles of male ob/ob mice. Specifically, the mice were intraperitoneally anesthetized with 250 mg/Kg Avertin (Sigma-Aldrich). A plastic cannula was inserted into lateral cerebral ventricle: −0.7 mm relative to bregma, 1.3 mm lateral of midline, and 2 mm down to the calvarium. The exteriorized cannula was secured on the skull with original Super Glue. To prevent the cannula from becoming blocked by blood clots, a 28-gauge stainless syringe pinhead was inserted into each cannula. The animals were allowed to recover for 1 week after surgery until the food-intake reaches at least 90% of the pre-operative level. All agents were injected slowly with a volume of 1 μl using a 5 μl syringe (Hamilton, Reno, Nev.). For instance, human CRP was injected at a lower concentration of 1.2 μg per animal and a higher concentration of 2.3 μg per animal into the lateral ventricles. The i.c.v injection of human CRP was followed 24 hours later by injection of human leptin at a sub-maximal dose of 100 ng/animal. In a parallel experiment, human leptin was also injected via i.c.v. following a pre-injection of PBS. In each injection scheme, food was returned to the animals 1 hour after the injection, and the amount of food-intake and body weight were measured 24 hours later. All paired comparisons were subject to a two-tailed Student t-test with P<0.05 considered statistically significant. Additionally, human leptin was injected via i.c.v. for an extended period of two days subsequent to a pre-injection of human CRP with a dosage of 2.3 μg/injection. In a parallel experimental scheme, daily injection of human leptin was performed for two consecutive days subsequent to a pre-injection of PBS.

[3] = system: tyrosine phosphorylation of STAT3 in the hypothalamic tissues; assay: Tyrosine phosphorylation of STAT3 in hypothalamic tissues after i.c.v. injection (Western blot)
Experimental: The hypothalamic tissues were surgically dissected right after sacrificing the mice. A portion of each tissue was extracted for protein in a protein lysis buffer. The activation of STAT3 was evaluated using Western blot assays with an antibody against phospho-tyrosine-STAT3 as described above (Cell Signaling, Beverly, Mass.). The membrane was striped and applied with an antibody against STAT3 to evaluate the overall level of STAT3 (Cell Signaling, Beverly, Mass.).
To determine whether the interaction between human CRP and leptin dampens the cellular actions of leptin, an assessment was made of the ability of leptin to stimulate tyrosine phosphorylation of STAT3 in the hypothalamic tissues. As described above, human CRP at 2.3 μg/injection or PBS was pre-injected via i.c.v., followed by an injection of human leptin or mouse leptin, each at 100 ng/injection. Subsequently, the hypothalamic tissues were dissected and immediately placed into liquid nitrogen for a rapid freezing. A portion of the frozen tissue was homogenized in a protein lysis buffer for the extraction of proteins. The protein extract was then subjected to Western blot assay as described above.

[4] = human leptin 100 ng/animal i.c.v. after PBS pre-injection, 24 hours

human CRP: human C-reactive protein, purified preparation from a commercial source
effect of human CRP on physiological actions of human leptin, separate osmotic pumps (ob/ob mice [1]; food intake, body weight, blood glucose, serum insulin, matched serum CRP): attenuate the physiological actions of human leptin | effect of co-infused human CRP on leptin-induced reduction of food intake and body weight, low dosage (ob/ob mice [1]; human CRP 10 μg/day with human leptin, single pump): only partially attenuated | effect on increase of rectal temperature induced by leptin (ob/ob mice [1]; human CRP 40 μg/day): completely blocked | effect of co-infused human CRP on leptin actions to restrain appetite and induce weight loss, high dosage (ob/ob mice [1]; human CRP 40 μg/day with human leptin, single pump): completely block | activation of STAT3 in hypothalamic tissues on co-infusion of CRP with leptin (ob/ob mice [1]; ob/ob mice): inhibited | effect of CRP alone on food intake and body weight (ob/ob mice [1]; ob/ob mice): did not affect food intake or body weight | effect of CRP alone on food intake and body weight (ob/ob mice [1]; ob/ob mice, listed as CRP): does not influence food intake and body weight | effect of co-infused human CRP on leptin's alleviation of diabetes (ob/ob mice [1]; ob/ob mice, co-infusion with leptin): reverted these effects | effect of human CRP alone on food intake and body weight (CRP-transgenic mice; CRP transgenic mice, no human leptin): did not meaningfully affect | average baseline serum concentration of human CRP (CRP-transgenic mice; mice transgenically expressing human CRP): approximately 15 μg/ml | effect of CRP pre-injection on satiety and weight reducing effects of human leptin, 1.2 μg (ob/ob mice [2]; human CRP 1.2 μg i.c.v. 24 hours before leptin): partially blunted | effect of CRP pre-injection on first injection of human leptin (ob/ob mice [2]; human CRP 2.3 μg/injection): completely blunted | effect of CRP pre-injection on second injection of human leptin (ob/ob mice [2]; human CRP 2.3 μg/injection): at least partially blocked | effect of CRP pre-injection on satiety and weight reducing effects of human leptin, 2.3 μg (ob/ob mice [2]; human CRP 2.3 μg/μl i.c.v. 24 hours before leptin): completely blocked | food consumed after CRP alone compared to PBS alone (ob/ob mice [2]; i.c.v., ob/ob mice): essentially the same amount of food | effect of CRP pre-injection on human leptin-induced STAT3 activation ([3]; human CRP 2.3 μg/injection): drastically diminished | effect of CRP pre-injection on mouse leptin-induced STAT3 activation ([3]; human CRP 2.3 μg/injection): did not block

human leptin: human recombinant leptin
total human leptin concentrations in the sera (ob/ob mice [1]; all groups infused with leptin (leptin only or leptin plus CRP), separate osmotic pumps): 15 to 20 ng/mL | effect of leptin on diabetes (blood glucose, plasma insulin, serum- and hepatic triglyceride) (ob/ob mice [1]; ob/ob mice): alleviated diabetes | effect of human leptin on food-intake and body weight (ob/ob mice [1]; ob/ob mice, 0.3 mg/kg/day s.c. infusion, 6 days): expected reduction in food-intake and body weight | physiological effects of human leptin in CRP-transgenic mice (CRP-transgenic mice; 0.6 mg/kg/day infusion, CRP-transgenic mice): completely blunted | effect of human leptin on food intake, body weight, epidydimal fat-pad weight in wild-type littermates (CRP-transgenic mice; 0.6 mg/kg/day infusion, wild-type littermates): expected reductions in food intake, body weight, and epidydimal fat-pad weight | total human leptin concentration in sera, transgenic mice (CRP-transgenic mice; end of infusion, CRP transgenic mice): 7.6 ng/mL | total human leptin concentration in sera, wild-type littermates (CRP-transgenic mice; end of infusion, wild-type littermates): 3.2 ng/mL | effect of daily injection of human leptin for two days on food intake and body weight (ob/ob mice [2]; after PBS pre-injection): gradual decreases in food intake and body weight | decrease in food-intake (ob/ob mice [2]; [4]): 40.2% | reduction of body weight (ob/ob mice [2]; [4]): 2.17% | level of phosph-STAT3 in hypothalamic tissues after leptin ([3]; human leptin 100 ng/injection following PBS): sharp increase
